Laboratory results: patent US20220233661A1, “METHOD OF DETERMINING ELIGIBILITY OF CANCER PATIENT FOR PEPTIDE VACCINE THERAPY” (priority 2019, published 2022)

Legend:
[1] = system: anti-peptide IgG in plasma; test: Test Example 4: peptide-specific IgG titer pre and post vaccination, bead-based multiplexed Luminex assay; format: in vivo, human; details: for Pre-vaccination IgG Negative (number of patients) / Pre-vaccination IgG Positive (number of patients): cut off 10 FIU; for Post vaccination IgG: number of (positive) patients among vaccinated: positive IgG response; for Pre-vaccination IgG Negative patients: number of 2,588 patients below 10 FIU; for Pre-vaccination IgG Positive patients: number of 2,588 patients with ≥10 FIU; for Post vaccination IgG: (positive) patients: number of vaccinated patients with positive IgG response; for Correlation between immune responses and OS: Negative (mOS): patients with negative post-vaccination IgG response to the peptide; for Correlation between immune responses and OS: Positive (mOS): patients with positive post-vaccination IgG response to the peptide
Experimental: As described previously, IgG titer specific to the antigen peptides in plasma was measured by bead-based multiplexed Luminex assay (Luminex, Austin, Tex.) before and after vaccination, i.e., at the end of each cycle or at the end of the clinical trial (Non-Patent Literature 4). In brief, 30 mL of peripheral blood was obtained before and after vaccination. Plasma was incubated with 100 μL of peptide-coupled color-coded beads for 2 hours at 25° C. on a plate shaker. After the incubation, the resultant mixture was washed with a vacuum manifold apparatus and incubated with 100 μL of biotinylated goat anti-human IgG (gamma chain-specific; Vector Laboratories, Burlingame, Calif.) for 1 hour at 25° C. on a plate shaker. The plate was then washed, followed by addition of 100 μL of streptavidin-PE (Life Technologies) to each well, and incubation for 30 minutes at 25° C. on a plate shaker. The resultant beads were washed 4 times, followed by addition of 100 μL of Tween-PBS to each well, and detection of fluorescence intensity units (FIU) on the beads using the Luminex system. The cutoff values of anti-peptide IgG were set to 10 FIU in 100-fold diluted samples.
Pre-vaccination peptide-specific IgG titers to 31 peptides were measured using a Luminex system. As a detectable IgG level, 10 FIU was employed as the cut off level, as reported previously (Noguchi M, et al., Cancer Immunol Immunother. 2013 May; 62(5): 919-29; Sasada T, et al., Current Medicinal Chemistry. 21: 2332-2345, 2014; Kibe S, et al., Cancer Immunology Research 2014; 2(12): 1154-62).
Post-vaccination lgG titers were measured at the ends of the first cycle and the second cycle.

[2] = system: cancer patients; test: Test Example 4: correlation between vaccination with individual peptides (or peptide sets) and OS, Cox proportional hazards regression; format: in vivo, human; details: for HR: Cox proportional hazards regression, OS; for Correlation between immune responses and OS: Negative (mOS) / Correlation between immune responses and OS: Positive (mOS): Table 20, <64% neutrophil and ≥26% lymphocyte; for Correlation between immune responses and OS: Negative (mOS): vaccinated patients with negative IgG response; for Correlation between immune responses and OS: Positive (mOS): vaccinated patients with positive IgG response
Experimental: The Student's t-test and the chi-square test were used to compare quantitative and categorical variables, respectively. OS was calculated as the time in months from the date of clinical trial enrollment to death or to the date of last contact. Time-to-event endpoints were analyzed using the Kaplan-Meier method, and between-group comparison for OS was conducted using the log-rank test. Clinical efficacy of the individual peptides for OS was evaluated by univariate and multivariate analyses with the Cox proportional hazards regression model, and HR and 95% CI were calculated. All reported p-values were two-sided, and p-values less than 0.05 were considered significant. JMP version 12 or SAS version 9.4 software (SAS Institute Inc., Cary, N.C.) was used to perform all analyses.
Correlation levels of the 31 peptides for OS were evaluated by the Cox proportional hazards regression model.
Similarly, in the 2,085 advanced cancer patients (stage IV+recurrence) and the 503 non-advanced cancer patients (I-III stages) correlation levels of the 31 peptides for OS were evaluated by the Cox proportional hazards regression model. […]

[3] = Table 20, patients showing both <64% neutrophil and ≥26% lymphocyte
[4] = patients showing detectable levels
[5] = patients showing positive responses
[6] = 2,085 advanced cancer patients (stage IV+recurrence)
[7] = Table 18, all 2,588 cases, vaccinated vs non-vaccinated
[8] = Table 18, all 2,588 cases, median OS of patients under PPV containing the peptide
[9] = Table 18, all 2,588 cases, median OS of patients under PPV not containing the peptide
[10] = Table 19, 2,085 advanced cancer patients (stage IV+recurrence)
[11] = Table 19, 2,085 advanced cancer patients (stage IV+recurrence), PPV containing the peptide
[12] = Table 19, 2,085 advanced cancer patients (stage IV+recurrence), PPV not containing the peptide
[13] = Table 21, patients showing both <64% neutrophil and ≥26% lymphocyte
[14] = Table 21, patients showing both <64% neutrophil and ≥26% lymphocyte, PPV containing the peptide
[15] = Table 21, patients showing both <64% neutrophil and ≥26% lymphocyte, PPV not containing the peptide
[16] = all 2,588 cases, PPV containing the peptide
[17] = all 2,588 cases, PPV not containing the peptide

Row | Sequence | Post vaccination IgG Median (FIU) [1, 3] | Pre-vaccination IgG Median (FIU) [1, 3] [FIU] | Pre-vaccination IgG Negative (number of patients) [1, 3] | Pre-vaccination IgG Positive (number of patients) [1, 3] | Post vaccination IgG: number of (positive) patients among vaccinated [1, 3] | Pre-vaccination IgG Negative patients [1] | Pre-vaccination IgG Positive patients [1] | Post vaccination IgG: (positive) patients [1] | Pre-vaccination IgG Median (FIU) [1, 4] [FIU] | Post vaccination IgG Median (FIU) [1, 5] | Correlation between immune responses and OS: Negative (mOS) [1] [months] | Correlation between immune responses and OS: Positive (mOS) [1] [months] | HR [2, 7] | Vaccinate cases (mOS) [2, 8] | Non-vaccinate cases (mOS) [2, 9] | HR [2, 10] | Vaccinate cases (mOS) [2, 11] | Non-vaccinate cases (mOS) [2, 12] | Correlation between immune responses and OS: Negative (mOS) [2] [months] | Correlation between immune responses and OS: Positive (mOS) [2] [months] | further results
1 | TFDYLRSVL (listed as Homo sapiens) [Lck-486] | 17,613 FIU | 40 | 167 | 899 | 356(274) | 404 | 2,184 | 879(573) | 42 | 15,147 FIU | 7.2 | 19.4 | 0.9 | 879(12.3) M | 671(11.3) M | 0.9 | 709(11.1) M | 537(9.6) M | 11.4 | 25.2 | median OS of non-vaccinated cases [2, 6]: 9.6 months; median OS of vaccinated cases [2, 6]: 11.1 months; HR [2, 13]: 0.9; Vaccinate cases (mOS) [2, 14]: 356(19.1) M; Non-vaccinate cases (mOS) [2, 15]: 269(17.6) M; median OS of vaccinated cases [2, 16]: 12.3 months; median OS of non-vaccinated cases [2, 17]: 11.3 months
2 | ILEQSGEWWK (listed as Homo sapiens) [Lck-90] | 4,250 FIU | 43 | 215 | 851 | 210(100) | 501 | 2,087 | 502(187) | 44 | 3,350 FIU | 10.3 | 20.9 | 1.0 | 502(11.3) M | 712(11.0) M | 1.0 | 391(10.3) M | 578(9.4) M | 12 | 26.3 | HR [2, 13]: 1.0; Vaccinate cases (mOS) [2, 14]: 210(17.8) M; Non-vaccinate cases (mOS) [2, 15]: 297(17.5) M
3 | DYSARWNEI (listed as Homo sapiens) [SART2-93] | 8,633 FIU | 64 | 141 | 925 | 467(183) | 340 | 2,248 | 1137(362) | 66 | 3,435 FIU | 12.3 | 21.7 | 0.9 | 1,137(12.3) M | 413(11.5) M | 1.0 | 906(10.7) M | 340(10.2) M | 17.3 | 24.7 | positive rate of patients showing ≥10 FIU, pre-vaccination peptide-specific IgG ([1]; 2,588 patients, pre-vaccination): 87%; HR [2, 13]: 1.0; Vaccinate cases (mOS) [2, 14]: 467(19.0) M; Non-vaccinate cases (mOS) [2, 15]: 158(17.6) M
4 | VYDYNCHVDL (listed as Homo sapiens) [SART3-109] | 9,770 FIU | 30 | 572 | 494 | 192(116) | 1,382 | 1,206 | 474(223) | 31 | 7,875 FIU | 10.3 | 19.0 | 1.0 | 474(12.3) M | 1,948(11.5) M | 1.0 | 376(10.6) M | 1566(10.2) M | 17.1 | 24.1 | HR [2, 13]: 1.0; Vaccinate cases (mOS) [2, 14]: 192(19.8) M; Non-vaccinate cases (mOS) [2, 15]: 796(18.0) M
5 | ALVEFEDVL (listed as Homo sapiens) [HNRPL-140] | 7,150 FIU | 37 | 505 | 561 | 103(68) | 1,293 | 1,295 | 200(111) | 39 | 8,576 FIU | 9.8 | 23.9 | 0.8 | 200(12.9) M | 850(11.1) M | 0.8 | 162(12.1) M | 700(10.0) M | 10.4 | 26.2 | median OS of non-vaccinated cases [2, 6]: 10 months; median OS of vaccinated cases [2, 6]: 12.1 months; HR [2, 13]: 0.8; Vaccinate cases (mOS) [2, 14]: 103(19.0) M; Non-vaccinate cases (mOS) [2, 15]: 331(15.6) M; median OS of vaccinated cases [2, 16]: 12.9 months; median OS of non-vaccinated cases [2, 17]: 11.1 months
6 | DYVREHKDNI (listed as Homo sapiens) [EGFR-800] | 746 FIU | 32 | 431 | 635 | 176(79) | 1,046 | 1,542 | 390(156) | 30 | 715 FIU | 12.4 | 24.3 | 0.8 | 390(14.3) M | 1,160(11.1) M | 0.8 | 299(13.1) M | 947(9.6) M | 17.1 | 27.5 | median OS of non-vaccinated cases [2, 6]: 9.6 months; median OS of vaccinated cases [2, 6]: 13.1 months; HR [2, 13]: 0.9; Vaccinate cases (mOS) [2, 14]: 176(21.2) M; Non-vaccinate cases (mOS) [2, 15]: 449(21.2) M; median OS of vaccinated cases [2, 16]: 14.3 months; median OS of non-vaccinated cases [2, 17]: 11.1 months
